Some test systems named below: U-251; HOP-62; PC-3; HL-60; UACC-62; HT-29; SW-620; MDA-N; SF-268; RXF 393; NCI-H226; NCI/ADR-RES; HCT-15; A549; SNB-19; M14; KM12; MOLT-4; HCC 2998.
Common to all, as to experiment: NCI tumour cell line growth inhibition, 48 h

Structures are written as SMILES.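 How tested: cells in 96-well plates exposed to compound for 48 hours at five concentrations. Here, GI50 denotes the concentration required for 50% inhibition of growth.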 Calls of active or inactive are those of the source. Rule as the data show it: active = GI50 up to about 1.1 µM and inactive = higher.

Turning to `NNC1=NC(=O)NC(=O)C1`, the GI50 in the assay on U-251, in the assay with HOP-62, in the assay with PC-3, in the assay on HL-60, with UACC-62 and in the assay with HT-29 was > 100 µM (inactive) throughout. In addition, the GI50 in the assay on SW-620, in the assay on MDA-N, in the assay on SF-268, in the assay on RXF 393, in the assay on NCI-H226 and with NCI/ADR-RES was > 100 µM (inactive) throughout. Also, the GI50 with HCT-15 was more than 100 µM; in the assay on A549 it was > 100 µM (inactive); in the assay with SNB-19, > 100 µM (inactive); in the assay on M14, > 100 µM (inactive); in the assay on KM12, > 100 µM (inactive); in the assay with MOLT-4, > 100 µM (inactive).

Take `CC(=O)Nc1ncc(Sc2ccccc2C(=O)O)s1`: the GI50 with U-251, with HOP-62, with PC-3, in the assay with HL-60, with UACC-62 and with HT-29 was > 100 µM (inactive) each time. Also, the GI50 with SW-620, in the assay on MDA-N, in the assay on SF-268, in the assay with RXF 393, in the assay on NCI-H226 and in the assay with NCI/ADR-RES was > 100 µM (inactive) in each case. Besides, the GI50 in the assay with HCT-15 is more than 100 µM; in the assay with A549, > 100 µM (inactive); with SNB-19, > 100 µM (inactive); in the assay with M14, > 100 µM (inactive); in the assay with KM12 it was > 100 µM (inactive); with MOLT-4, > 100 µM (inactive).

Turning to `O=c1cccc(C2CC(CO)C3CCCCN3C2)[nH]1` (stereo not given), the GI50 in the assay on U-251, in the assay with PC-3, in the assay on HL-60, with UACC-62, in the assay on HT-29 and in the assay on SW-620 was > 100 µM (inactive) in each case. The GI50 in the assay on MDA-N is > 100 µM (inactive); with SF-268, > 100 µM (inactive); in the assay on NCI-H226, > 100 µM (inactive); with NCI/ADR-RES, > 100 µM (inactive); with HCT-15, more than 100 µM; in the assay on A549 it was > 100 µM (inactive). Moreover, the GI50 in the assay on SNB-19, in the assay with HCC 2998, in the assay with M14, in the assay on KM12 and in the assay with MOLT-4 was > 100 µM (inactive) each time.

Consider `COc1ccc(OC2OC(CO)C(OCc3ccccc3)C(OCc3ccccc3)C2OCc2ccccc2)cc1` (stereo not given), for which the GI50 was 25.7 µM (inactive) in the assay on U-251; > 100 µM (inactive) with HOP-62; 1.48 µM (inactive) with PC-3; 88.9 µM (inactive) in the assay with HL-60; > 100 µM (inactive) in the assay with UACC-62; 9.79 µM (inactive) in the assay with HT-29. The GI50 in the assay on SW-620 was > 100 µM (inactive); with MDA-N, 76 µM (inactive); with SF-268 it was 22.3 µM (inactive); with NCI-H226 it was > 100 µM (inactive); with NCI/ADR-RES, 61.9 µM (inactive); in the assay with A549 it was 11.1 µM (inactive). The GI50 was > 100 µM (inactive) in the assay on SNB-19; > 100 µM (inactive) in the assay with HCC 2998; > 100 µM (inactive) in the assay with M14; 72.9 µM (inactive) with KM12; 2.02 µM (inactive) in the assay on MOLT-4.

`CN(C)CCNC(=O)c1cccc2c(NC(CS)C(=O)O)c3ccccc3nc12` (stereo not given): the GI50 in the assay on U-251 was 6.38 µM (inactive); in the assay with HOP-62, 5.32 µM (inactive); in the assay on PC-3, 6.07 µM (inactive); with HL-60, 3.3 µM (inactive); with UACC-62, 21.6 µM (inactive); in the assay on HT-29, 4.94 µM (inactive). Besides, the GI50 with SW-620 was 4.05 µM (inactive); with MDA-N it was 4.55 µM (inactive); in the assay on SF-268 it was 7.94 µM (inactive); in the assay on NCI-H226, 5.53 µM (inactive); in the assay on NCI/ADR-RES, 9.82 µM (inactive); in the assay on HCT-15, 3.72 µM. The GI50 with A549 is 4.62 µM (inactive); in the assay on SNB-19, 7.52 µM (inactive); in the assay on HCC 2998 it was 6.21 µM (inactive); in the assay with M14, 4.39 µM (inactive); in the assay on KM12, 8.47 µM (inactive); with MOLT-4, 3.17 µM (inactive).

`CCC(=O)/C(=C\I)c1ccccc1`: the GI50 with U-251 is 2.23 µM (inactive); in the assay with HOP-62, 21 µM (inactive); in the assay on PC-3 it was 3.01 µM (inactive); with HL-60 it was 0.995 µM (active); in the assay with UACC-62, 2.49 µM (inactive); in the assay on HT-29, 0.931 µM (active). Further, the GI50 with SW-620 was 1.58 µM (inactive); with MDA-N it was 2.85 µM (inactive); with SF-268, 16.7 µM (inactive); in the assay on RXF 393, 1.52 µM (inactive); in the assay with NCI-H226 it was 23.4 µM (inactive); in the assay with NCI/ADR-RES, 12.4 µM (inactive). In addition, the GI50 in the assay on HCT-15 is 1.8 µM; in the assay on A549, 20.9 µM (inactive); with SNB-19, 15.3 µM (inactive); in the assay on M14, 2.28 µM (inactive); in the assay with KM12, 6.56 µM (inactive); in the assay on MOLT-4, 2.23 µM (inactive).

Regarding `O=C1c2cc(-c3ccccc3)cnc2S(=O)(=O)N1c1ccc(Br)cc1`, the GI50 in the assay with U-251 is 30.1 µM (inactive); in the assay on HOP-62, 16.8 µM (inactive); with PC-3, 34.4 µM (inactive); in the assay with HL-60 it was 18.9 µM (inactive); with UACC-62, 32.8 µM (inactive); in the assay with HT-29, > 100 µM (inactive). Also, the GI50 is 81.8 µM (inactive) in the assay on SW-620; > 100 µM (inactive) in the assay with MDA-N; 33.7 µM (inactive) with SF-268; > 100 µM (inactive) in the assay with NCI-H226; 83.6 µM (inactive) in the assay on NCI/ADR-RES; 34.7 µM with HCT-15. Besides, the GI50 in the assay with A549 is 18.7 µM (inactive); in the assay with SNB-19, 15.8 µM (inactive); in the assay with HCC 2998, 17.8 µM (inactive); in the assay on M14, 76.9 µM (inactive); in the assay with KM12, 25.5 µM (inactive); with MOLT-4 it was 46.3 µM (inactive).

Take `N#Cc1nn(C(N)=O)c(N)c1C#N`: the GI50 with U-251, in the assay on HOP-62, with PC-3, in the assay on HL-60, in the assay with UACC-62 and with HT-29 was > 100 µM (inactive) throughout. Also, the GI50 in the assay on SW-620 was > 100 µM (inactive); in the assay on MDA-N, > 100 µM (inactive); in the assay on SF-268 it was > 100 µM (inactive); in the assay on NCI-H226, > 100 µM (inactive); in the assay on NCI/ADR-RES it was > 100 µM (inactive); with HCT-15, more than 100 µM. In addition, the GI50 with A549, with SNB-19, in the assay on HCC 2998, in the assay on M14, with KM12 and in the assay on MOLT-4 was > 100 µM (inactive) each time.

`COc1cc(C2SCC(=O)N2c2ccc(-c3ccc(-n4c(-c5ccccc5)nc5ccccc5c4=O)cc3)cc2)ccc1O` (stereo not given): the GI50 with U-251 is 44.2 µM (inactive); in the assay with HOP-62 it was > 100 µM (inactive); with PC-3, 40.4 µM (inactive); with HL-60, 65.3 µM (inactive); in the assay with UACC-62, 21.8 µM (inactive); in the assay on HT-29, 39.2 µM (inactive). In addition, the GI50 was 82 µM (inactive) with SW-620; 80 µM (inactive) in the assay on MDA-N; 32.7 µM (inactive) in the assay with SF-268; 30.9 µM (inactive) with NCI-H226; 13.6 µM (inactive) in the assay with NCI/ADR-RES; 25.8 µM with HCT-15. Further, the GI50 in the assay with A549 was > 100 µM (inactive); in the assay on SNB-19, > 100 µM (inactive); in the assay with HCC 2998, 82.2 µM (inactive); with M14, > 100 µM (inactive); with KM12 it was 48.2 µM (inactive); in the assay on MOLT-4, 37 µM (inactive).

Turning to `Oc1ccc(O)c(Sc2nnc(CCCCCCCCc3nnc(Sc4cc(O)ccc4O)o3)o2)c1`, the GI50 was 71.6 µM (inactive) in the assay with U-251; > 100 µM (inactive) in the assay on HOP-62; > 100 µM (inactive) in the assay on PC-3; 47.5 µM (inactive) with UACC-62; > 100 µM (inactive) in the assay on HT-29; 31.3 µM (inactive) in the assay on SW-620. The GI50 in the assay with MDA-N is 17.3 µM (inactive); in the assay on SF-268, 73.6 µM (inactive); with NCI-H226, > 100 µM (inactive); in the assay with NCI/ADR-RES, > 100 µM (inactive); in the assay on HCT-15, 88.7 µM; with A549, > 100 µM (inactive). The GI50 is > 100 µM (inactive) in the assay with SNB-19; 75.5 µM (inactive) with HCC 2998; > 100 µM (inactive) with M14; 26.7 µM (inactive) in the assay with KM12; 49.5 µM (inactive) with MOLT-4.

With `CN(C)c1ccccc1CN1CCCN(Cc2ccccc2N(C)C)C1c1ccncc1`, the GI50 is 23 µM (inactive) with U-251; 15.4 µM (inactive) in the assay on HOP-62; 17.9 µM (inactive) in the assay with PC-3; 13 µM (inactive) in the assay on HL-60; 14.4 µM (inactive) in the assay with UACC-62; 11.6 µM (inactive) in the assay with HT-29. Besides, the GI50 with SW-620 is 16.3 µM (inactive); in the assay with MDA-N it was 10.3 µM (inactive); with SF-268, 18.8 µM (inactive); in the assay with RXF 393, 10.2 µM (inactive); in the assay on NCI-H226, 21.4 µM (inactive); in the assay on NCI/ADR-RES, 24.1 µM (inactive). The GI50 with HCT-15 was 22.2 µM; in the assay with A549 it was 17.4 µM (inactive); in the assay with SNB-19 it was 12.9 µM (inactive); in the assay on M14, 2.33 µM (inactive); in the assay with KM12, 19.1 µM (inactive); in the assay on MOLT-4 it was 18.1 µM (inactive).

The values are drawn from ChEMBL document CHEMBL1201862, “PubChem BioAssay data set” (2004).
